Ki data for 40 compounds are collected here from patent publication US11498923B2 (Merck Sharp & Dohme Corp., priority 2017, dated 2022).

One test deals with T1, human A2a receptor (Homo sapiens, UniProt P29274).
T1 construct: purchased Perkin-Elmer RBHA2AM400UA; host or cells: HEK293 cells, used as a membrane preparation
T1 sequence (P29274 whole entry): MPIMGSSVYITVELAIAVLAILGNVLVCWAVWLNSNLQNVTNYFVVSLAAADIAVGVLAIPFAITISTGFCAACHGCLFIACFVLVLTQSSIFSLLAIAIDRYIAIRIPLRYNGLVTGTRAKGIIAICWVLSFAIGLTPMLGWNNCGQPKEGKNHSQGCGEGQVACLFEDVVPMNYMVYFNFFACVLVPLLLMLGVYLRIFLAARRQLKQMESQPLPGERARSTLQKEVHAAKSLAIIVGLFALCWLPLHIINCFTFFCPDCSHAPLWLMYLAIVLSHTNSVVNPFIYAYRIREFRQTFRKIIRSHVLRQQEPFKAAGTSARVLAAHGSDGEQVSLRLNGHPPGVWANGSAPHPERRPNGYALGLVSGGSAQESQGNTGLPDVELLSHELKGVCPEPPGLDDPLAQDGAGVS
The test is described as follows: A2a receptor competition binding assay (Scintillation Proximity). The conditions noted are these: A2a Ki, membranes from HEK293 cells expressing human A2a receptor; 0.5 nM tritiated ligand; Cheng-Prusoff. In outline: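 Ki values were obtained with the Cheng-Prusoff equation from competition curves against 0.5 nM tritiated antagonist, scintillation proximity counting after 1 h room-temperature incubation. Receptor came from HEK293 membranes pretreated with adenosine deaminase; compound final range 3000–0.15 nM, buffer Ca/Mg-free PBS with 10 mM MgCl2.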
On the technique in general: SPA uses beads or plates that emit light when radiolabelled molecules are held near them.
In turn, `COc1cccc2c1nc(N)n1cc(C(=O)N3C4CCCC3CC4)nc21` [Ex-208, (5-amino-7-methoxyimidazo[1,2-c]quinazolin-2-yl)(8-azabicyclo[3.2.1]octan-8-yl)methanone] displayed a Ki of 3.2 nM.

The same test, now with this note: membranes from HEK293 cells expressing human A2a receptor; 0.5 nM tritiated ligand; Cheng-Prusoff; read-out: A2a Ki.
Turning to `COc1cccc2c1nc(N)n1cc(C(=O)N3CCCC4(C3)OCCO4)nc21` [Ex-231, (5-amino-7-methoxyimidazo[1,2-c]quinazolin-2-yl)(1,4-dioxa-7-azaspiro[4.5]decan-7-yl)methanone], the Ki is 10 nM. Same read-out and setting: then `Nc1nc2c(F)cccc2c2nc(Cc3cccc(C(=O)Nc4ccccn4)c3)cn12` [Ex-85, 3-((5-amino-7-fluoroimidazo[1,2-c]quinazolin-2-yl)methyl)-N-(pyridin-2-yl)benzamide], with 9.7 nM. As for `Nc1nc2c(OC(F)(F)F)cccc2c2nc(Cc3ccccc3)cn12` [Ex-10, 2-benzyl-7-(trifluoromethoxy)imidazo[1,2-c]quinazolin-5-amine], the Ki came to 6.2 nM. `Nc1nc2c(F)cccc2c2nc(CN3CCC(Cc4ccccc4)CC3)cn12` [Ex-114, 2-((4-benzylpiperidin-1-yl)methyl)-7-fluoroimidazo[1,2-c]quinazolin-5-amine]: the inhibitory constant (Ki) worked out at 130 nM. For `COc1cccc2c1nc(N)n1cc(C(=O)N3CCC4(CCOC4)CC3)nc21` [Ex-197, (5-amino-7-methoxyimidazo[1,2-c]quinazolin-2-yl)(2-oxa-8-azaspiro[4.5]decan-8-yl)methanone], the Ki was determined as 22 nM.

`CCn1cc(-c2cccc3c2nc(N)n2cc(CN(C)Cc4cccc(Cl)c4)nc32)cn1` [Ex-151, 2-(((3-chlorobenzyl)-(methyl)amino)-methyl)-7-(1-ethyl-1H-pyrazol-4-yl)imidazo[1,2-c]-quinazolin-5-amine]: the inhibitory constant (Ki) is more than 2200 nM.

As to `COc1cccc2c1nc(N)n1cc(CCN3Cc4cccnc4C3)nc21` [Ex-137, 2-(2-(5,7-dihydro-6H-pyrrolo[3,4-b]pyridin-6-yl)ethyl)-7-methoxyimidazo[1,2-c]quinazolin-5-amine], the Ki amounted to 13.1 nM. Still for that read-out and setting: next, `Nc1nc2c(F)cccc2c2nc(C(=O)NCc3ccccc3CN3CCN(c4ccc(F)cc4F)CC3)cn12` [Ex-249, 5-amino-N-(2-((4-(2,4-difluorophenyl)piperazin-1-yl)methyl)benzyl)-7-fluoroimidazo[1,2-c]quinazoline-2-carboxamide]: 18 nM; `Nc1nc2c(F)cccc2c2nc(Cc3ccc(C(=O)Nc4ccccn4)cc3)cn12` [Ex-84, 4-((5-amino-7-fluoroimidazo[1,2-c]quinazolin-2-yl)methyl)-N-(pyridin-2-yl)benzamide]: 3.8 nM. The same measure, in the same setting: next, `COc1cccc2c1nc(N)n1cc(Cc3cccnc3Cl)nc21` [Ex-38, 2-((2-chloropyridin-3-yl)methyl)-7-methoxyimidazo[1,2-c]quinazolin-5-amine]: 2.3 nM.

As for `COc1cccc2c1nc(N)n1cc(CN3CCc4ccc(-c5cncnc5)cc4C3)nc21` [Ex-134], the inhibition constant Ki worked out at 7.9 nM. Turning to `COc1cccc2c1nc(N)n1cc(C(=O)N3C(C)CCC3C)nc21` (stereo not shown) [Ex-210, (5-amino-7-methoxyimidazo[1,2-c]quinazolin-2-yl)(2,5-dimethylpyrrolidin-1-yl)methanone], the Ki turned out to be 6.1 nM. With `COc1cccc2c1nc(N)n1cc(C(=O)N3CCC(C(C)C)CC3)nc21` [Ex-196, (5-amino-7-methoxyimidazo[1,2-c]quinazolin-2-yl)(4-isopropylpiperidin-1-yl)methanone], the Ki is 11 nM.

As for `CC(c1ccc(-c2cccc(Cc3cn4c(N)nc5c(F)cccc5c4n3)c2)cc1)N1CCOCC1` (stereo not drawn) [Ex-75, 7-fluoro-2-((4′-(l-morpholinoethyl)-[1,1′-biphenyl]-3-yl)methyl)imidazo[1,2-c]quinazolin-5-amine], the Ki is 6 nM. On the same count and under the same terms, then `Nc1nc2c(F)cccc2c2nc(Cc3cccc4c3CCNC4)cn12` [Ex-52, 7-fluoro-2-((1,2,3,4-tetrahydroisoquinolin-5-yl)methyl)imidazo-[1,2-c]quinazolin-5-amine], with 11 nM.

With `Nc1nc2ccccc2c2nc(C(=O)N3CCN(c4ccc(F)cc4F)CC3)cn12` [Ex-165, (5-aminoimidazo[1,2-c]quinazolin-2-yl)(4-(2,4-difluorophenyl)piperazin-1-yl)methanone], the inhibitory constant (Ki) came out at 10000 nM. For `Nc1nc2c(F)cccc2c2nc(C(=O)N3CCC4(CCCNC4)CC3)cn12` [Ex-270, (5-amino-7-fluoroimidazo[1,2-c]quinazolin-2-yl)(2,9-diazaspiro[5.5]undecan-9-yl)methanone], the Ki is 100 nM. With `COc1cccc2c1nc(N)n1cc(Cc3ccccc3N3CCOCC3)nc21` [Ex-19, 7-methoxy-2-(2-morpholinobenzyl)imidazo[1,2-c]quinazolin-5-amine], the Ki is 4.5 nM. Consider `COc1cccc2c1nc(N)n1cc(Cc3ccc(N4CCOCC4)cc3)nc21` [Ex-41, 7-methoxy-2-(4-morpholinobenzyl)imidazo[1,2-c]quinazolin-5-amine], for which the Ki turned out to be 15 nM. On the same count and under the same terms, then `Nc1nc2ccccc2c2nc(Cc3ccccc3CN3CCOCC3)cn12` [Ex-25, 2-(2-(morpholinomethyl)benzyl)imidazo[1,2-c]quinazolin-5-amine], with 10.2 nM. Regarding `COc1ccc2nc(N)n3cc(Cc4ccccc4)nc3c2c1` [Ex-04, 2-benzyl-9-methoxyimidazo[1,2-c]quinazolin-5-amine], the Ki was 89.6 nM.

For `Nc1nc2cc(F)ccc2c2nc(Cc3ccccc3)cn12` [Ex-07, 2-benzyl-8-fluoroimidazo[1,2-c]quinazolin-5-amine], the Ki was 4.6 nM. As for `COc1cccc2c1nc(N)n1cc(C(=O)N3CCC4(CCOC4=O)CC3)nc21` [Ex-228, 8-(5-amino-7-methoxyimidazo[1,2-c]quinazoline-2-carbonyl)-2-oxa-8-azaspiro[4.5]decan-1-one], the Ki was determined as 180 nM. On the same count and under the same terms, next, `Nc1nc2ccccc2c2nc(-c3ccc(Br)cc3)cn12` [Ex-104, 2-(4-bromophenyl)imidazo[1,2-c]quinazolin-5-amine]: 407 nM. As to `Nc1nc2ccccc2c2nc(Cc3ccccc3C(F)(F)F)cn12` [Ex-14, 2-(2-(trifluoromethyl)benzyl)imidazo[1,2-c]quinazolin-5-amine], the Ki came to 2.3 nM. The same measure, in the same setting: next, `Nc1nc2c(F)cccc2c2nc(C(=O)NCc3cccc(N4CCOCC4)c3)cn12` [Ex-257, 5-amino-7-fluoro-N-(3-morpholino-benzyl)imidazo-[1,2-c]-quinazoline-2-carboxamide]: 3.6 nM; `Nc1nc2c(F)cccc2c2nc(C(=O)N3CCC4(CCNC4)C3)cn12` (stereo not shown) [Ex-272, (5-amino-7-fluoroimidazo[1,2-c]quinazolin-2-yl)(2,7-diazaspiro[4.4]nonan-2-yl)methanone]: 380 nM. Still for that read-out and setting: then `COc1c(F)ccc2c1nc(N)n1cc(Cc3ccccc3)nc21` [Ex-11, 2-benzyl-8-fluoro-7-methoxyimidazo[1,2-c]quinazolin-5-amine], with 2 nM; and `COc1cccc2c1nc(N)n1cc(C(=O)N3CCCC(CO)C3)nc21` (stereo not shown) [Ex-191, (5-amino-7-methoxyimidazo[1,2-c]quinazolin-2-yl)(3-(hydroxymethyl)piperidin-1-yl)methanone], with 23 nM. Turning to `COc1cccc2c1nc(N)n1cc(C(=O)N3CCCC(C)(C)C3)nc21` [Ex-189, (5-amino-7-methoxyimidazo[1,2-c]quinazolin-2-yl)(3,3-dimethylpiperidin-1-yl)methanone], the Ki was 4.5 nM. Turning to `COCCOc1ccc(N2CCN(Cc3ccccc3Cc3cn4c(N)nc5c(OC)cccc5c4n3)CC2)cc1` [Ex-66, 7-methoxy-2-(2-((4-(4-(2-methoxyethoxy)phenyl)piperazin-1-yl)methyl)benzyl)imidazo[1,2-c]quinazolin-5-amine], the Ki was determined as 11.5 nM. On the same count and under the same terms, next, `CCCN1CCC2(CCCN(C(=O)c3cn4c(N)nc5c(F)cccc5c4n3)C2)C1` (stereo not shown) [Ex-276, (5-amino-7-fluoroimidazo[1,2-c]quinazolin-2-yl)(2-propyl-2,7-diazaspiro[4.5]decan-7-yl)methanone]: 130 nM; `COc1cccc2c1nc(N)n1cc(C(=O)N3CCCC4(CC4)C3)nc21` [Ex-242, (5-amino-7-methoxyimidazo[1,2-c]quinazolin-2-yl)(5-azaspiro[2.5]octan-5-yl)methanone]: 4.3 nM. Take `Nc1nc2c(F)cccc2c2nc(CN3CCc4cc(CC(=O)Nc5ccccn5)ccc4C3)cn12` [Ex-129, 2-(2-((5-amino-7-fluoroimidazo[1,2-c]quinazolin-2-yl)methyl)-1,2,3,4-tetrahydroisoquinolin-6-yl)-N-(pyridin-2-yl)acetamide]: the Ki is 51 nM.

Consider `COC(=O)C1CCN(C(=O)c2cn3c(N)nc4c(OC)cccc4c3n2)CC1` [Ex-226, methyl 1-(5-amino-7-methoxyimidazo[1,2-c]quinazoline-2-carbonyl]piperidine-4-carboxylate], for which the inhibition constant Ki was determined as 29 nM. For the compound `CCCN1CCc2c(Cc3cn4c(N)nc5c(F)cccc5c4n3)cccc2C1` [Ex-56, 7-fluoro-2-((2-propyl-1,2,3,4-tetrahydroisoquinolin-5-yl)melhyl)imidazo-[1,2-c]quinazolin-5-amine], the Ki was determined as 16 nM.

On to `Nc1nc2c(F)cccc2c2nc(CN3CCc4cc(NC(=O)c5ccccn5)ccc4C3)cn12` [Ex-127, N-(2-((5-amino-7-fluoroimidazo[1,2-c]quinazolin-2-yl)methyl)-1,2,3,4-tetrahydroisoquinolin-6-yl)picolinamide], for which the Ki amounted to 64 nM.

In the case of `COc1cccc2c1nc(N)n1cc(Cc3ccc(N4CCN(C(C)=O)CC4)cc3)nc21` [Ex-44, 1-(4-(4-((5-amino-7-methoxyimidazo[1,2-c]quinazolin-2-yl)methyl)phenyl)piperazin-1-yl)ethan-1-one], the Ki was 14 nM. On to `Nc1nc2c(F)cccc2c2nc(CC3CCN(Cc4cccs4)CC3)cn12` [Ex-306, 7-fluoro-2-((1-(thio-phen-2-ylmethyl)-piperidin-4-yl)methyl)-imidazo[1,2-c]quina-zolin-5-amine], for which the inhibition constant Ki came out at 45 nM.

As usually defined, the Ki is the dissociation constant of the complex between target and ligand, obtained from inhibition or displacement.
